# Where no end group is shown, it is not given here.
# System: blood pressure of anesthetized Sprague-Dawley IGS male rats
# Experiment: Hypotensive activity in anesthetized rats, invasive blood pressure measurement after intravenous administration
# Assay type: in vivo, rat
# Conditions: for Hypotensive activity (dose/rat) 10 nmol / Hypotensive activity (dose/rat) 30 nmol / Hypotensive activity (dose/rat) 100 nmol: anesthetized rats, intravenous; for Hypotensive activity (dose/rat) 10 nmol: 10 nmol/rat; for Hypotensive activity (dose/rat) 30 nmol: 30 nmol/rat; for Hypotensive activity (dose/rat) 100 nmol: 100 nmol/rat; for dose dependence of hypotensive activity: anesthetized rats, 10, 30, 100 nmol/rat
# Protocol: 50 mg/kg pentobarbital sodium was intraperitoneally administered to 8- to 10-week-old Sprague-Dawley IGS male rats (Charles River Laboratories Japan, Inc.) for anesthesia. Thereafter, a tracheal cannula (PE 250), a femoral vein cannula (PE50), and a femoral artery cannula (PESO) were inserted into each rat. The femoral artery cannula was connected with a pressure transducer (PE23XL; manufactured by Nihon Kohden Corporation), and an apparatus formed by incorporating a blood pressure measurement unit (AP-641G; manufactured by Nihon Kohden Corporation) and an instantaneous heart rate measurement unit (AT-601G; manufactured by Nihon Kohden Corporation) into a multi-purpose preamplifier (RP-6004; manufactured by Nihon Kohden Corporation) was used to record the blood pressure and heart rate of each rat. The blood pressure was calibrated using a mercury manometer included in a stand-type electromanometer (MP-25S; manufactured by Nihon Kohden Corporation). The recording paper was adjusted, such that 10 mm or 20 mm on the recording paper corresponded to 100 mmHg.
# Each peptide was dissolved in a concentration of 1 mM or 10 mM in a 0.1% acetic acid solution to prepare a peptide solution. Thereafter, depending on dose, it was diluted with a normal saline containing 0.1% bovine serum albumin (Fr.V). In the case of the dose of 10 nmol/rat, a 1 mM peptide solution was 10 times diluted, and 100 μl of the diluted solution was administered. In the case of the dose of 30 nmol/rat, a 1 mM peptide solution was 10 times diluted, and 300 μL, of the diluted solution was administered. In the case of the dose of 100 nmol/rat, a 10 mM peptide solution was 10 times diluted, and 100 μL of the diluted solution was administered. Each peptide was intravenously administered via the femoral vein cannula, and the systolic blood pressure, diastolic blood pressure, and heart rate were then measured.
# Various HC021 derivative peptides were synthesized in accordance with Example 1, and such peptide was then administered to each rat at a dose of 10 nmol/rat, 30 nmol/rat, or 100 mol/rat by the method described in Example 2. Thereafter, the hypotensive activity of each derivative peptide was measured. […] The strength of such activity was determined using a median of activity in repeated experiments. In addition, in order to make a comparison among the activities of various derivative peptides, the strength of hypotensive activity was defined as follows.
# Strength of Hypotensive Activity
# Extremely strong activity (+++): A decrease in systolic blood pressure is 30 mmHg or more, and the time required for recovery is 5 minutes or more.
# Strong activity (++): A decrease in systolic blood pressure is 20 mmHg or more and less than 30 mmHg, or the time required for recovery is less than 5 minutes.
# Activity observed (+): A decrease in systolic blood pressure is less than 20 mmHg.
# Activity not observed (−)
# Various HC021 peptide sequence-substituted products were synthesized in accordance with Example 1, and their hypotensive activity was then measured according to the method of Example 3.
Substance,Hypotensive activity (dose/rat) 10 nmol (Table 2),Hypotensive activity (dose/rat) 30 nmol (Table 2),Hypotensive activity (dose/rat) 100 nmol (Table 2),Hypotensive activity (dose/rat) 10 nmol (Table 3),Hypotensive activity (dose/rat) 30 nmol (Table 3),further results
GATVRNEDKWKPLNNPRNRDLFFRRLQAYFK-amide [Compound 7],−,"++ (Strong activity (++): A decrease in systolic blood pressure is 20 mmHg or more and less than 30 mmHg, or the time required for recovery is less than 5 minutes.)",,,,
NGATVRNEDKWKPLNNPRNRDLFFRRLQAYFK-amide [Compound 6],−,+ (Activity observed (+): A decrease in systolic blood pressure is less than 20 mmHg.),,,,
FRRLQAYFK-amide (FRRLQAYFK-NH2) [Compound 21],,−,−,,,
LFFRRLQA-amide (LFFRRLQA-NH2) [Compound 26],,−,−,,,
ATVRNEDKWKPLNNPRNRDLFFRRLQAYFK (not fully specified) [Compound 8],,−,"+++ (Extremely strong activity (+++): A decrease in systolic blood pressure is 30 mmHg or more, and the time required for recovery is 5 minutes or more.)",,,
ATLGSEDTWKPLSNPRNRELFFRSLQAYFK-amide [Compound 37],,,,−,−,"Hypotensive activity (dose/rat) 100 nmol (Table 3): ++ (Strong activity (++): A decrease in systolic blood pressure is 20 mmHg or more and less than 30 mmHg, or the time required for recovery is less than 5 minutes.)"
LFFRRLQAYFKGRGLDLGTFPNPF [Compound 27],"+++ (Extremely strong activity (+++): A decrease in systolic blood pressure is 30 mmHg or more, and the time required for recovery is 5 minutes or more.)",,,,,
VQQRKESKKPPAKLQPRNRDLFFRRLQAYFK-amide (VQQRKESKKPPAKLQPRNRDLFFRRLQAYFK-NH2) [Compound 40],,,,,"++ (Strong activity (++): A decrease in systolic blood pressure is 20 mmHg or more and less than 30 mmHg, or the time required for recovery is less than 5 minutes.)",
LFFRRLQAY-amide (LFFRRLQAY-NH2) [Compound 25],,−,+ (Activity observed (+): A decrease in systolic blood pressure is less than 20 mmHg.),,,
ATVRNEDKWKPLNNPRNRDLFF [Compound 1],−,−,−,,,Hypotensive activity (dose/rat) 10 nmol (Table 1): −; Hypotensive activity (dose/rat) 30 nmol (Table 1): −; Hypotensive activity (dose/rat) 100 nmol (Table 1): −
ATLGSEDTWKPLSNPRNRDLFPRRLQAYFK-amide [Compound 35],,,,−,"++ (Strong activity (++): A decrease in systolic blood pressure is 20 mmHg or more and less than 30 mmHg, or the time required for recovery is less than 5 minutes.)",
LFFRRLQAYF-amide (LFFRRLQAYF-NH2) [Compound 24],,"++ (Strong activity (++): A decrease in systolic blood pressure is 20 mmHg or more and less than 30 mmHg, or the time required for recovery is less than 5 minutes.)",,,,
acetyl-NRDLFFRRLQAYFK-amide (Ac-NRDLFFRRLQAYFK-NH2) [Compound 32],,"++ (Strong activity (++): A decrease in systolic blood pressure is 20 mmHg or more and less than 30 mmHg, or the time required for recovery is less than 5 minutes.)",,,,
acetyl-ATVRNEDKWKPLNNPRNRDLFFRRLQAYFK-amide [Compound 31],,"+++ (Extremely strong activity (+++): A decrease in systolic blood pressure is 30 mmHg or more, and the time required for recovery is 5 minutes or more.)",,,,
LFFRRLQAYFKASASADYEEQKNSFHNYLK- amide [Compound 49],,,,"+++ (Extremely strong activity (+++): A decrease in systolic blood pressure is 30 mmHg or more, and the time required for recovery is 5 minutes or more.)",,
NRDLFFRRLQAYAK-amide (NRDLFFRRLQAYAK-NH2) [Compound 42],,,,−,−,"Hypotensive activity (dose/rat) 100 nmol (Table 3): ++ (Strong activity (++): A decrease in systolic blood pressure is 20 mmHg or more and less than 30 mmHg, or the time required for recovery is less than 5 minutes.)"
ATVRNEDKWKPLNNPRNRDLFFRRLQAYF-amide [Compound 10],−,"++ (Strong activity (++): A decrease in systolic blood pressure is 20 mmHg or more and less than 30 mmHg, or the time required for recovery is less than 5 minutes.)",,,,
ATLRNEDTWKPLSNPRNRDLFFRRLQAYFK-amide [Compound 34],,,,−,+ (Activity observed (+): A decrease in systolic blood pressure is less than 20 mmHg.),
NRDLFFRRLQAYFK (not fully specified (C-terminus)) [Compound 15],−,−,+ (Activity observed (+): A decrease in systolic blood pressure is less than 20 mmHg.),,,
NRDLFFRRLQAYFKG [Compound 11],−,−,+ (Activity observed (+): A decrease in systolic blood pressure is less than 20 mmHg.),,,
DLFFRRLQAYFK-amide (DLFFRRLQAYFK-NH2) [Compound 17],−,"++ (Strong activity (++): A decrease in systolic blood pressure is 20 mmHg or more and less than 30 mmHg, or the time required for recovery is less than 5 minutes.)","+++ (Extremely strong activity (+++): A decrease in systolic blood pressure is 30 mmHg or more, and the time required for recovery is 5 minutes or more.)",,,dose dependence of hypotensive activity: enhanced their hypotensive activity in a dose-dependent manner
LFFRRLQAYFK-amide (LFFRRLQAYFK-NH2) [Compound 19],+ (Activity observed (+): A decrease in systolic blood pressure is less than 20 mmHg.),"++ (Strong activity (++): A decrease in systolic blood pressure is 20 mmHg or more and less than 30 mmHg, or the time required for recovery is less than 5 minutes.)","+++ (Extremely strong activity (+++): A decrease in systolic blood pressure is 30 mmHg or more, and the time required for recovery is 5 minutes or more.)",+ (Activity observed (+): A decrease in systolic blood pressure is less than 20 mmHg.),"++ (Strong activity (++): A decrease in systolic blood pressure is 20 mmHg or more and less than 30 mmHg, or the time required for recovery is less than 5 minutes.)","Hypotensive activity (dose/rat) 100 nmol (Table 3): +++ (Extremely strong activity (+++): A decrease in systolic blood pressure is 30 mmHg or more, and the time required for recovery is 5 minutes or more.); dose dependence of hypotensive activity: enhanced their hypotensive activity in a dose-dependent manner"
FVPIFTYGELQRMQNRDLFFRRLQAYFK-amide (FVPIFTYGELQRMQNRDLFFRRLQAYFK-NH2) [Compound 39],,,,−,−,"Hypotensive activity (dose/rat) 100 nmol (Table 3): +++ (Extremely strong activity (+++): A decrease in systolic blood pressure is 30 mmHg or more, and the time required for recovery is 5 minutes or more.)"
LFFRSLQAYFK-amide (LFFRSLQAYFK-NH2) [Compound 43],,,,−,"++ (Strong activity (++): A decrease in systolic blood pressure is 20 mmHg or more and less than 30 mmHg, or the time required for recovery is less than 5 minutes.)",
NRDLFFRRLQAYFKG-amide (NRDLFFRRLQAYFKG-NH2) [Compound 12],−,"++ (Strong activity (++): A decrease in systolic blood pressure is 20 mmHg or more and less than 30 mmHg, or the time required for recovery is less than 5 minutes.)","+++ (Extremely strong activity (+++): A decrease in systolic blood pressure is 30 mmHg or more, and the time required for recovery is 5 minutes or more.)",,,dose dependence of hypotensive activity: enhanced their hypotensive activity in a dose-dependent manner
